In ChEMBL document CHEMBL3887008, “Pyrrolinone carboxamide compounds useful as endothelial lipase inhibitors” (2016):

Target: T1, Endothelial lipase (Homo sapiens, UniProt Q9Y5X9)
T1 sequence (Q9Y5X9 whole entry): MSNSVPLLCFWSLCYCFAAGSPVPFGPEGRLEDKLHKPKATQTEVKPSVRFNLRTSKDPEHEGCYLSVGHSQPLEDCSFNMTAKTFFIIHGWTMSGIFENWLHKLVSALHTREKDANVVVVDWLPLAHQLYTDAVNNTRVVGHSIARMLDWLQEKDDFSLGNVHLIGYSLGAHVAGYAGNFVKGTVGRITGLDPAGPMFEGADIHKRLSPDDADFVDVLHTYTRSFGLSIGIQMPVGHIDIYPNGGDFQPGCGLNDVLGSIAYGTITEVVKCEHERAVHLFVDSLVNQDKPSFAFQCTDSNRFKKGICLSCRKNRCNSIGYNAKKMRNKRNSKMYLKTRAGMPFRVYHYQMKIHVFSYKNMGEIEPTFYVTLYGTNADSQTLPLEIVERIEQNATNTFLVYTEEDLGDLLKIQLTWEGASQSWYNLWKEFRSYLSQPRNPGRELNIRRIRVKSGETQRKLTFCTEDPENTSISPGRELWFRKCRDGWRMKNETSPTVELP
Assay: Enzymatic Assay: Endothelial lipase activity was measured using a fluorescent substrate, A10070, (Invitrogen, CA) doped into an artificial vesicle containing DMPG (Avanti Polar Lipids) as the excipient. Vesicles were prepared by combining 285 uL of 1 mMDMPG in a 1:1 mixture of MeOH and CHCl3 with 15 uL of 1 mM A10070 in a 1:1 mixture of MeOH and CHCl3. The mixture was dried under nitrogen and resuspended in 150 uL of 50 mM HEPES pH 8.0 buffer containing 100 mM NaCl and 0.2 mM EDTA. The sample was allowed to sit at rt for 15 min and then was sonicated 3x4 mins on ice with a Branson Sonicator using duty cycle 1. This preparation provides vesicles with a mole fraction of 0.05 for the FRET substrate.The enzymatic assay was measured using white, opaque 96-well half area plates. Each well contained 60 uL of assay buffer (50 mM HEPES pH 8.0, 50 mM NaCl and 1 mM CaCl2) and 2 ul of a DMSO solution containing compound of interest. Conditioned media obtained from HT-1080 cells, which were transformed by RAGE technology (Athersys) to overexpress endogenous EL, was added and the reaction was allowed to incubate for 20 min at 37deg; C. with gentle agitation. The reaction was started by the addition of 20 uL of a 1:4 dilution of vesicles. The final total reaction volume was 100 uL. The reaction rates were measured on a Gemini plate reader with an excitation wavelength of 488 nm and a emission of 530 nm. Readings were taken every 20 seconds for 10 min with agitation between each reading. The slope of the linear portion of the readout was used to calculate the rate of the reaction.
Type: cell-based

In order of falling IC50:
1. CN1CC(C(=O)NCc2ccc(Oc3ccccc3)cc2)=C(O)C1=O  43 nM
2. CC(=O)Nc1ccc(-c2cccc([C@@H](C)NC(=O)C3=C(O)C(=O)N(c4ccc(F)cc4F)C3)c2)cc1  27.1 nM
3. CN1CC(C(=O)NCc2ccc(Oc3ccc(Cl)c(Cl)c3)cc2)=C(O)C1=O  27 nM
4. CN1CC(C(=O)NCCCOc2cccc(Oc3ccccc3)c2)=C(O)C1=O  22.1 nM
